Experimental findings from patent US9163008B2, “Pyrimidines as sodium channel blockers” (Purdue Pharma, L.P., priority 2011, dated 2015) are described below.

Read-outs that look alike come from different tables or passages of the source. Bounds are passed on as bounds.

The IC50 is the concentration at which inhibition is half-maximal.

The subject of assay [1] is SNL-induced mechanical hyperalgesia. Briefly: SNL-induced mechanical hyperalgesia model (paw pressure test). It counts as in vivo, rat. The note with it: rats, dosed orally at 100 mg/kg, vehicle 0.5% methyl cellulose, one hour before testing. As to the method:
In the Chung model, the spinal nerve ligation (SNL) model of neuropathic pain is used to produce mechanical hyperalgesia, thermal hyperalgesia, and tactile allodynia in rats. Surgery is performed under isoflurane/O2 inhalation anesthesia. Following induction of anesthesia a 3 cm incision is made and the left paraspinal muscles are separated from the spinous process at the L4-S2 levels. The L6 transverse process is carefully removed with a pair of small rongeurs to identify visually the L4-L6 spinal nerves. The left L5 (or L5 and L6) spinal nerve(s) is (are) isolated and tightly ligated with silk thread. […] The animals can also be assessed for response to noxious thermal stimuli or for tactile allodynia, as described below. […] Sensitivity to noxious mechanical stimuli was measured in animals using the paw pressure test to assess mechanical hyperalgesia. In rats, hind paw withdrawal thresholds (“PWT”), measured in grams, in response to a noxious mechanical stimulus were determined using an analgesymeter (Model 7200, commercially available from Ugo Basile of Italy), as described in Stein (Biochemistry & Behavior 31: 451-455 (1988)). […] PWT was determined once for each rat at each time point. PWT can be measured only in the injured paw, or in both the injured and non-injured paw. […]

The target of another assay is hNav1.7 (Homo sapiens (Human), UniProt Q15858). In words: Electrophysiology (EP) whole-cell patch clamp assay. The class given is cell-based. The note with it: for Ki: read-out: Nav1.7 Activity EP assay Ki; for Kd: resting block dissociation constant, read-out: Nav1.7 Activity EP assay Kr. On the procedure:
The hNav1.7 expressing HEK-293 cells were plated on 35 mm culture dishes pre-coated with poly-D-lysine in standard DMEM culture media (Mediatech, Inc., Herndon, Va.) and incubated in a 5% CO2 incubator at 37° C. Cultured cells were used approximately 12-48 h after plating.
On the day of experimentation, the 35 mm dish was placed on the stage of an inverted microscope equipped with a perfusion system that continuously perfuses the culture dish with fresh recording media. A gravity driven superfusion system was used to apply test solutions directly to the cell under evaluation. This system consists of an array of glass pipette glass connected to a motorized horizontal translator. The outlet of the shooter was positioned approximately 100 μm from the cell of interest.
Gigaseals were formed and the whole-cell configuration was established in voltage clamp mode, and membrane currents generated by hNav1.7 were recorded in gap-free mode. […] Signals were sampled at 50 kHz and low pass filtered at 3 kHz.
To determine a membrane potential at which the majority of channels are in the resting state, a standard steady-state inactivation (SSIN) protocol was run using 100 ms prepulses×10 mV depolarizing steps. The holding potential for testing resting block (Vh1) was 20 mV more hyperpolarized than the first potential where inactivation is observed with the inactivation protocol.
From this holding potential a standard I-V protocol was run to determine the potential at which the maximal current (Imax) was elicited. This potential was the test potential (Vt).
The fractional response was calculated as follows: FR=I(after drug)/I(control),
where I is the peak current amplitude and was used for estimating resting block dissociation constant, Kr: Kr=[drug]*{FR/(1−FR)},
To assess the block of inactivated channels the holding potential was depolarized such that 20-50% of the current amplitude was reduced when pulsed to the same Vt as above. The magnitude of this depolarization depends upon the initial current amplitude and the rate of current loss due to slow inactivation. This was the second holding potential (Vh2). The current reduction was recorded to determine the fraction of available channels at this potential (h). h=I@Vh2/Imax.
At this membrane voltage a proportion of channels are in the inactivated state, and thus inhibition by a blocker includes interaction with both resting and inactivated channels.
To determine the potency of the test compound on inactivated channels, a series of currents were elicited by 10 ms voltage steps from Vh2 to Vt every 10-15 seconds. After establishing a stable baseline, the low concentration of the compound was applied. Multiple cumulative concentrations may have to be applied to identify a concentration that will block between 40-60% of the current. Washout was attempted to re-establish baseline. Fractional responses were measured with respect to a projected baseline to determine Kapp. Kapp=[drug]*{FR/(1−FR)},
This Kapp value, along with the calculated Kr and h values, were used to calculate the affinity of the compound for the inactivated channels (Ki) using the following equation: Ki=(1−h)/((1/Kapp)−(h/Kr)).
Vehicle solution used to establish base line was also contacting 0.3% DMSO.
Data was analyzed off-line using Clampfit software (pClamp, v. 8; Axon Instruments) and graphed using GraphPad Prizm (v. 4.0 or higher) software.
In general terms: In patch-clamp work, channel activity is measured electrically.

A further assay addresses human Nav1.7 (Homo sapiens (Human), UniProt Q15858). Briefly: FLIPR sodium dye assay (CoroNa Green) with KCl and test article pre-incubation. It counts as cell-based. Conditions: read-out: Nav1.7 Activity FLIPR assay IC50.
The mark [2] stands for this setting: affinity for inactivated channels, hNav1.7 HEK-293.
[3] abbreviates: recombinant human Nav1.7 in HEK293, veratridine and scorpion venom agonists.

hNav1.7, sequence (Q15858 other isoform, or with tags, fused parts or gaps): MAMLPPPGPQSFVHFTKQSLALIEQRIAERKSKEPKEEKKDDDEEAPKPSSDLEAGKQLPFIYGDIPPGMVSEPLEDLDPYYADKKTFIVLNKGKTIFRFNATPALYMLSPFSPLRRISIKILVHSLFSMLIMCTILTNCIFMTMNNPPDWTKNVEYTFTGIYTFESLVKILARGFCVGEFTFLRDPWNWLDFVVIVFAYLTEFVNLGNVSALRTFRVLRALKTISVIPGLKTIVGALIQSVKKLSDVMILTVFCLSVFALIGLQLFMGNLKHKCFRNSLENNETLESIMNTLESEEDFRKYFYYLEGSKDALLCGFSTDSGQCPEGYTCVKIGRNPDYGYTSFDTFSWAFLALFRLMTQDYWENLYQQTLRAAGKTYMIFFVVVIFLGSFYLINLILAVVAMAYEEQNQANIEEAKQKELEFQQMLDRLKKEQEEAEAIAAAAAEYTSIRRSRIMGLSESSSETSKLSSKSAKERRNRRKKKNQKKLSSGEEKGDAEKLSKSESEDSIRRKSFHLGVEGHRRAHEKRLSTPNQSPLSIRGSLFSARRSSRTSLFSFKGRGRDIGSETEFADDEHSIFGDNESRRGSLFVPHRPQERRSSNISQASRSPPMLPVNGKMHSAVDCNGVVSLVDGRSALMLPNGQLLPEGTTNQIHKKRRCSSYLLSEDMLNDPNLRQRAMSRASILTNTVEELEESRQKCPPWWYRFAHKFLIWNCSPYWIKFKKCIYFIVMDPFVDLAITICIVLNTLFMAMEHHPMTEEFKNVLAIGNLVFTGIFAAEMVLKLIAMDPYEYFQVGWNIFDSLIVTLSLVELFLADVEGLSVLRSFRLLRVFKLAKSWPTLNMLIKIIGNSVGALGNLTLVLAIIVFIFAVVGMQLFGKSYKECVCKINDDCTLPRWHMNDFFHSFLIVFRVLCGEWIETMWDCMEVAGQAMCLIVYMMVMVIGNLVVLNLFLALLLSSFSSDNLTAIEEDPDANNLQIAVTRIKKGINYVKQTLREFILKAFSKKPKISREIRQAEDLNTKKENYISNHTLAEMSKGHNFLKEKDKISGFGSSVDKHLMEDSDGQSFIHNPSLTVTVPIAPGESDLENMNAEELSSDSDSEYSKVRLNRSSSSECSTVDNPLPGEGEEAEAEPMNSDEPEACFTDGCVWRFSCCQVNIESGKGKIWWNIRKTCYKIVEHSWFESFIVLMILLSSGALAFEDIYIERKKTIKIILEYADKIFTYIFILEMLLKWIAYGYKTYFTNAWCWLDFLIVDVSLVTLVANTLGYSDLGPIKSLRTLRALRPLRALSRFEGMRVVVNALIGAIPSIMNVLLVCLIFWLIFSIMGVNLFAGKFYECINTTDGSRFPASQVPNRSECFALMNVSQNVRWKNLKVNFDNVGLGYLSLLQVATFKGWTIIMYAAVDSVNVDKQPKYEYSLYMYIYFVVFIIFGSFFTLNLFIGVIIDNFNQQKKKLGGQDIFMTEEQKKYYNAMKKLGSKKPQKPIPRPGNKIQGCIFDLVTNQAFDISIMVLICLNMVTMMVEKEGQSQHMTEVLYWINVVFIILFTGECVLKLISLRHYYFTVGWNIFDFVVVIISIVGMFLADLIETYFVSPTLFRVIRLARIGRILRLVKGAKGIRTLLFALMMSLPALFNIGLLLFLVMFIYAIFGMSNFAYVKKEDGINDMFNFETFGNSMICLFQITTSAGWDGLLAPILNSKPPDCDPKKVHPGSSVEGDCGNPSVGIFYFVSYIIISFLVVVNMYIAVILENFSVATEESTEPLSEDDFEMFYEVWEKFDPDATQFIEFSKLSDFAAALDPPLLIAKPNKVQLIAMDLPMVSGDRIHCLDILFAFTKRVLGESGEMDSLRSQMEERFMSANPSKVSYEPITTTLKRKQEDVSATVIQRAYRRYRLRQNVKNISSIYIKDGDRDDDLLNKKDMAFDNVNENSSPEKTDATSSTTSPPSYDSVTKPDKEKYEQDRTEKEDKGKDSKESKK
human Nav1.7, sequence (Q15858 other isoform, or with tags, fused parts or gaps): as above

Turning to `NC(=O)c1cc(N[C@H]2CCNC2=O)nc(-c2ccc(Oc3ccc(C(F)(F)F)cn3)cc2)n1` [compound 99, (S)-6-((2-oxopyrrolidin-3-yl)amino)-2-(4-((5-(trifluoromethyl)pyridin-2-yl)oxy)phenyl)pyrimidine-4-carboxamide], the “SNL-induced mechanical hyperalgesia (paw withdrawal threshold)” value in assay [1] is on record as “reduced SNL-induced mechanical hyperalgesia”. Further, the Ki at hNav1.7 (setting [2]) came out at 83 nM. Besides, the Kd on hNav1.7 (hNav1.7 HEK-293) came out at 4.65 µM. Also, the IC50 on human Nav1.7 amounted to 570 nM.

As for `C[C@H](Nc1cc(C(N)=O)nc(-c2ccc(Oc3ccc(Cl)cc3F)cc2)n1)C(N)=O` [Cpd No. 64, (S)-6-((1-amino-1-oxopropan-2-yl)amino)-2-(4-(4-chloro-2-fluorophenoxy)phenyl)pyrimidine-4-carboxamide], on hNav1.7 (setting [2]), the Ki stood at 16 nM. Moreover, the Kd at hNav1.7 (hNav1.7 HEK-293) is 0.73 µM. In addition, the IC50 on human Nav1.7 came out at 180 nM.

Consider `C[C@H](Nc1cc(C(N)=O)nc(-c2ccc(Oc3ccc(C(F)(F)F)cn3)cc2)n1)C(N)=O` [Cpd No. 13, (S)-6-((1-amino-1-oxopropan-2-yl)amino)-2-(4-((5-(trifluoromethyl)pyridin-2-yl)oxy)phenyl)pyrimidine-4-carboxamide], for which the Ki on hNav1.7 (setting [2]) came out at 420 nM. For the same compound, the Kd at hNav1.7 (hNav1.7 HEK-293) stood at 169 µM. Further, the IC50 at human Nav1.7 was determined as 990 nM.

With `C[C@H](Nc1cc(C(N)=O)nc(-c2ccc(Oc3ccc(F)cc3)cc2)n1)C(N)=O` [Cpd No. 1, (S)-6-((1-amino-1-oxopropan-2-yl)amino)-2-(4-(4-fluorophenoxy)phenyl)pyrimidine-4-carboxamide], the Ki on hNav1.7 came to 57 nM. Moreover, on hNav1.7 (hNav1.7 HEK-293), the Kd stood at 4.22 µM. At human Nav1.7, the IC50 stood at 420 nM.

Consider `C[C@H](Nc1cc(C(N)=O)nc(-c2ccc(Oc3ccc(OC(F)(F)F)cc3)cc2)n1)C(N)=O` [Cpd No. 84, (S)-6-((1-amino-1-oxopropan-2-yl)amino)-2-(4-(4-(trifluoromethoxy)phenoxy)phenyl)pyrimidine-4-carboxamide], for which the “SNL-induced mechanical hyperalgesia (paw withdrawal threshold)” value in assay [1] is “reduced SNL-induced mechanical hyperalgesia”.

As for `C[C@H](Nc1cc(C(=O)O)nc(-c2ccc(Oc3ccc(F)cc3)cc2)n1)C(N)=O` [Cpd No. 35, (S)-6-((1-amino-1-oxopropan-2-yl)amino)-2-(4-(4-fluorophenoxy)phenyl)pyrimidine-4-carboxylic acid], the Ki at hNav1.7 (setting [2]) was determined as 20500 nM. Further, the Kd on hNav1.7 (hNav1.7 HEK-293) was found to be 102 µM. Moreover, the IC50 at human Nav1.7 (setting [3]) was more than 20000 nM.

Take `C[C@@H](Nc1cc(C(N)=O)nc(-c2ccc(Oc3ccc(F)cc3)cc2)n1)C(N)=O` [Cpd No. 21, (R)-6-((1-amino-1-oxopropan-2-yl)amino)-2-(4-(4-fluorophenoxy)phenyl)pyrimidine-4-carboxamide]: the Ki at hNav1.7 was 230 nM. In addition, the Kd at hNav1.7 (hNav1.7 HEK-293) is 7.25 µM. For the same compound, the IC50 on human Nav1.7 was found to be 600 nM.

For `C[C@H](Nc1cc(C(=O)O)nc(-c2ccc(Oc3ccc(F)cc3)cc2)n1)C(=O)O` [Cpd No. 40, (S)-6-((1-carboxyethyl)amino)-2-(4-(4-fluorophenoxy)phenyl)pyrimidine-4-carboxylic acid], at hNav1.7 (setting [2]), the Ki was found to be 41000 nM. The Kd at hNav1.7 (hNav1.7 HEK-293) came out at 110 µM. On human Nav1.7 (setting [3]), the IC50 is more than 20000 nM.

In the case of `C[C@H](Nc1cc(C(N)=O)nc(-c2ccc(Oc3ccc(Cl)cn3)cc2)n1)C(N)=O` [Cpd No. 63, (S)-6-((1-amino-1-oxopropan-2-yl)amino)-2-(4-((5-chloropyridine-2-yl)oxy)phenyl)pyrimidine-4-carboxamide], the Ki at hNav1.7 (setting [2]) turned out to be 600 nM. On hNav1.7 (hNav1.7 HEK-293), the Kd was found to be 28 µM. The IC50 on human Nav1.7 came to 790 nM.

For the compound `NC(=O)c1cc(N2CCC[C@H]2C(N)=O)nc(-c2ccc(Oc3ccc(F)cc3)cc2)n1` [Cpd No. 5, (S)-6-(2-carbamoylpyrrolidin-1-yl)-2-(4-(4-fluorophenoxy)phenyl)pyrimidine-4-carboxamide], the Ki at hNav1.7 (setting [2]) worked out at 78 nM. For the same compound, the Kd on hNav1.7 (hNav1.7 HEK-293) is 7.95 µM. Further, at human Nav1.7, the IC50 was determined as 260 nM.
